Source: patent publication US11974976B2, “Animal feeds and feed premixes containing betaine hydrochloride and a phytase” (Rural Chemical Industries (AUST) PTY LTD, priority 2013, dated 2024)
Structures can show the parent of a compound that is named as a salt. Marks after values point to notes of the source that are not given here.

How the values were obtained:
Format in all cases: in vivo, broiler chicks
male Ross 308 chicks [1] = assay: Bone mineralisation (percentage toe ash); settings: phytase 500 FTU/kg, betaine 2.75 g/kg
Experimental: (§1) The composition and nutrient specifications of the three basal starter (1-16 days post-hatch) and finisher (17-37 days post-hatch) diets are shown in Table 1. An NSP-degrading enzyme (Econase XT) was included across all the wheat-based diets to reflect standard practice and the finisher diets contained 20 g/kg Celite as an acid insoluble ash dietary marker. The starter diets were fed as mash, while the finisher diets were steam-pelleted at a conditioning temperature of 85° C. The NC1 diets were the ‘phytase-modified’ diets with formulated with reductions of 1.4 g/kg Ca and 1.5 g/kg P in the starter diets, which mainly stemmed from the elimination of dicalcium phosphate. The corresponding reductions in the finisher diets were 1.2 g/kg Ca and 1.4/kg P. The NC2 diets were the ‘betaine-modified’ diets in which energy density, methionine and choline levels were reduced mainly by lower inclusion levels of canola oil and synthetic methionine and the elimination of choline chloride relative to the PC diets. The energy densities were reduced from 12.55 to 12.24 MJ/kg in the starter diets and from 12.97 to 12.66 MJ/kg in the finisher diets. Methionine levels were reduced from 4.44 to 3.19 g/kg in the starter diets and from 4.18 to 2.93 g/kg in the finisher diets. Exogenous phytase (Quantum® Blue; AB Vista) was included in the relevant diets at 100 g per tonne or 500 FTU/kg phytase activity and, similarly, betaine HCl (Hi Beta″, 970 g/kg betaine hydrochloride; Rural Chemical Industries) was included in the diets at 2.75 g/kg.
(§2) The parameters evaluated included growth performance (weight gains, feed intakes, feed conversion ratios; FCR) from 1 to 16, 17 to 37 and 1 to 37 days post-hatch, 1 to 37 days weight gain-corrected FCR, mortality/cull rates, percentage toe ash, nitrogen (N) excretion and nutrient utilisation. Nutrient utilisation included apparent metabolisable energy (AME), expressed as both MJ/kg and MJ/day, N retention and N-corrected AME (AMEn). Also, breast weights in absolute and relative (% yield) terms, abdominal fat pad weights and pH of gizzard contents were determined. However, for reasons of practical expediency, absolute breast weights were determined on a ‘bone-in’ basis from birds that had not been de-feathered and this approach inflates both the absolute weight and yield; nevertheless, the data remains indicative. The experimental data was obtained and calculated via standard procedures followed by the Poultry Research Foundation. While the various procedures are not detailed in this report the majority of them have been described in detail (Selle et al., 2003b) previously.
The experimental data was statistically analysed as a 3×2×2 factorial array of dietary treatments. […]

male Ross 308 chicks [2] = assay: Nutrient utilisation (AME, N retention, N-corrected AME); settings: for Increase in AMEn on addition to diet: diet type x betaine HCl interaction; for AME / AME (energy intake) / AMEn / N retention: phytase 500 FTU/kg, betaine 2.75 g/kg
Excerpt: Energy that is not metabolisable is ‘excreted energy’. Another way of defining ‘metabolisable energy’ is to refer to an ‘apparent metabolisable energy value’ or ‘AME value’. An ‘AME value’ is simply the gross energy of the feed consumed minus the gross energy contained in the faeces, urine, and gaseous products of digestion.

male Ross 308 chicks [3] = assay: Carcass traits (breast weight, breast meat yield, abdominal fat pad weight); settings: for Breast weight: bone-in; for Breast weight / Breast meat yield / Fat pad weight: phytase 500 FTU/kg, betaine 2.75 g/kg
Experimental: as §1, §2
The experimental data was statistically analysed as a 3×2×2 factorial array of dietary treatments. That is diet type (PC, NC1, NC2), without and with the addition of phytase, without and with the addition of betaine HCl. Each of the 12 dietary treatments was offered to 8 replicate cages of 6 birds or a total of 96 cages and 576 birds (male Ross 308 chicks). The IBM® SPSS® Statistics 20 program was used to analyse experimental data and the study complied with specific guidelines of the Animal Ethics Committee of Sydney University.

[4] = main effect across diets, hydrochloride
[5] = main effect across diets, listed as betaine HCl, hydrochloride
[6] = main effect across diets, listed as betaine, hydrochloride

C[N+](C)(C)CC(=O)O [Betaine, betaine hydrochloride]
Toe ash (male Ross 308 chicks [1]; NC1 diets): 11.15% | Toe ash (male Ross 308 chicks [1]; NC2 diets): 12.29% | Toe ash (male Ross 308 chicks [1]; PC diets): 11.99% | Toe ash (male Ross 308 chicks [1]; main effect across diets): 12.07% | AME, diet type x betaine interaction mean (male Ross 308 chicks [2]; NC1 diets): 13.10 mJ/kg | AMEn, diet type x betaine HCl interaction mean (male Ross 308 chicks [2]; NC1 diets): 11.36 mJ/kg | Increase in AMEn on addition to diet (male Ross 308 chicks [2]; NC1 diets): 1.01 mJ | Increase in AME on addition to diet (male Ross 308 chicks [2]; NC1 diets, diet type x betaine interaction): 0.78 mJ | Increase in AME relative to control diet (male Ross 308 chicks [2]; NC1 diets, individual addition): 0.44 mJ | AME (male Ross 308 chicks [2]; NC1 diets): 12.77 MJ/kg DM | AME (energy intake) (male Ross 308 chicks [2]; NC1 diets): 1.868 mJ/day | AMEn (male Ross 308 chicks [2]; NC1 diets): 11.25 MJ/kg DM | N retention (male Ross 308 chicks [2]; NC1 diets): 52.14% | Increase in AMEn on addition to diet (male Ross 308 chicks [2]; NC2 diets): 0.17 mJ | Decrease in AME on addition to diet (male Ross 308 chicks [2]; NC2 diets, diet type x betaine interaction): 0.08 mJ | AME (male Ross 308 chicks [2]; NC2 diets): 12.86 MJ/kg DM | AME (energy intake) (male Ross 308 chicks [2]; NC2 diets): 2.061 mJ/day | AMEn (male Ross 308 chicks [2]; NC2 diets): 11.43 MJ/kg DM | N retention (male Ross 308 chicks [2]; NC2 diets): 49.25% | Increase in AMEn on addition to diet (male Ross 308 chicks [2]; PC diets): 0.23 mJ | Increase in AME on addition to diet (male Ross 308 chicks [2]; PC diets, diet type x betaine interaction): 0.20 mJ | AME (male Ross 308 chicks [2]; PC diets): 13.29 MJ/kg DM | AME (energy intake) (male Ross 308 chicks [2]; PC diets): 2.077 mJ/day | AMEn (male Ross 308 chicks [2]; PC diets): 11.69 MJ/kg DM | N retention (male Ross 308 chicks [2]; PC diets): 52.05% | AME (energy intake), phytase x betaine interaction mean (male Ross 308 chicks [2]; across diet types): 2.002 mJ/day | AMEn, phytase x betaine HCl interaction mean (male Ross 308 chicks [2]; across diet types): 11.46 mJ/kg | Increase in AMEn by betaine HCl (male Ross 308 chicks [2]; in the absence of phytase): 0.20 mJ | Decrease in AME on betaine addition (male Ross 308 chicks [2]; in the absence of phytase, across diet types): 0.08 mJ | Increase in AMEn by betaine HCl (male Ross 308 chicks [2]; in the presence of phytase): 0.74 mJ | Increase in AME on betaine addition (male Ross 308 chicks [2]; in the presence of phytase, across diet types): 0.67 mJ | Increase in AME (male Ross 308 chicks [2]; main effect): 0.30 mJ/kg | N retention (male Ross 308 chicks [2]; main effect across diets): 52.02% | AME (male Ross 308 chicks [2]; [4]): 13.33^b MJ/kg DM | AME (energy intake) (male Ross 308 chicks [2]; [4]): 2.126 mJ/day | AMEn (male Ross 308 chicks [2]; [4]): 11.79^b MJ/kg DM | AMEn (male Ross 308 chicks [2]; [5]): 11.79 MJ/kg DM | AME (male Ross 308 chicks [2]; [6]): 13.33 MJ/kg DM | AME (energy intake) (male Ross 308 chicks [2]; [6]): did not influence | Breast weight (male Ross 308 chicks [3]; NC1 diets): 526 g/bird | Breast meat yield (male Ross 308 chicks [3]; NC1 diets): 25.7% | Fat pad weight (male Ross 308 chicks [3]; NC1 diets): 14.7 g/bird | Breast weight (male Ross 308 chicks [3]; NC2 diets): 625 g/bird | Breast meat yield (male Ross 308 chicks [3]; NC2 diets): 26.9% | Fat pad weight (male Ross 308 chicks [3]; NC2 diets): 18.4 g/bird | Breast weight (male Ross 308 chicks [3]; PC diets): 660 g/bird | Breast meat yield (male Ross 308 chicks [3]; PC diets): 28.3% | Fat pad weight (male Ross 308 chicks [3]; PC diets): 17.3 g/bird | Breast meat yield, phytase x betaine interaction mean (male Ross 308 chicks [3]; across diet types): 27.0% | Fat pad weight, phytase x betaine interaction mean (male Ross 308 chicks [3]; across diet types): 16.8 g/bird | Decrease in fat pad weights by betaine HCl (male Ross 308 chicks [3]; in the absence of phytase): 17.6% | Increase in fat pad weights by betaine HCl (male Ross 308 chicks [3]; in the presence of phytase): 8.67% | Increase in breast meat yield (relative) (male Ross 308 chicks [3]; main effect): 1.91% | Increase in breast yield (male Ross 308 chicks [3]; main effect): 0.5 percentage units | Breast weight (male Ross 308 chicks [3]; [4]): 624 g/bird | Breast weight (male Ross 308 chicks [3]; [6]): no influence | Breast meat yield (male Ross 308 chicks [3]; [4]): 26.7^b % | Fat pad weight (male Ross 308 chicks [3]; [4]): 19.1 g/bird | Breast meat yield (male Ross 308 chicks [3]; main effect across diets, listed as Betaine HCl, hydrochloride): 26.7% | Breast meat yield (male Ross 308 chicks [3]; [5]): 26.7% | Fat pad weight (male Ross 308 chicks [3]; [5]): no effect
